Tests used:
[1] = compound: CCOC(=O)CCNc1cc(N2CCc3ccccc3CC2)nc(-c2ccccn2)n1 [GSK-J4] + COc1cc2c(Oc3ccc(NC(=O)C4(C(=O)Nc5ccc(F)cc5)CC4)cc3F)ccnc2cc1OCCCN1CCOCC1 [Foretinib] (partner 0.25 µM); test: relative viability (nuclei count vs DMSO), 5 days (fraction); higher = more cells survive
Method in brief: (§1)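 Lung cancer cell lines were pin-tool dosed in 1536-well plates on the day after seeding, with either a lone drug or a fixed anchor-drug dose plus five library-drug doses (not always all listed) in √10 steps. Nuclei were counted on 4× images after 5 days. Relative viability is the ratio of treated-well to vehicle-well nuclei counts, with each value a median of duplicate plates.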

[2] = compound: CN1CCC(CC1)OC2=CC(=C(C=C2)NC3=NC=C4C(=N3)N(C(=O)N4C)C5CCCC5)OC [AZ3146] + Cc1cc(Nc2cc(N3CCN(C)CC3)nc(Sc3ccc(NC(=O)C4CC4)cc3)n2)n[nH]1 [Tozasertib] (partner 0.1 µM); test: as above
Method in brief: as §1

Row | Cell Line | relative viability ([1]; first compound 0.5 µM) | relative viability ([1]; first compound 1.581 µM) | relative viability ([1]; first compound 5 µM) | relative viability ([1]; first compound 15.81 µM) | relative viability ([1]; first compound 50 µM) | relative viability ([2]; first compound 0.08 µM) | relative viability ([2]; first compound 0.253 µM) | relative viability ([2]; first compound 0.8 µM) | relative viability ([2]; first compound 2.53 µM) | relative viability ([2]; first compound 8 µM)
1 | NCI-H596 | 0.928 | 0.657 | 0.892 | 0.673 | 0.823 | 0.949 | 0.972 | 0.979 | 0.728 | 0.524
2 | NCI-H838 | 1.03 | 1.02 | – | 0.853 | 0.738 | 0.249 | 0.252 | 0.254 | 0.263 | 0.183
3 | HCC-366 | 0.955 | 0.881 | – | 0.915 | 0.874 | 0.0936 | 0.1 | 0.0606 | 0.044 | 0.0336
4 | NCI-H1651 | 0.765 | 0.905 | 0.922 | 0.663 | 0.8 | 0.597 | 0.793 | 0.465 | 0.552 | 0.297
5 | ABC-1 | 1.04 | 0.63 | 1.06 | 0.989 | 0.846 | 0.173 | 0.178 | 0.181 | 0.135 | 0.2
6 | LOU-NH91 | 0.963 | 0.925 | 0.789 | 0.893 | 0.918 | 0.453 | 0.668 | 0.664 | 0.525 | 0.365
7 | NCI-H520 | 0.691 | 0.689 | 0.811 | 0.613 | 0.626 | 0.345 | 0.433 | 0.371 | 0.423 | 0.408
8 | H3255 | 0.856 | 0.85 | 0.846 | 0.844 | 0.804 | 0.598 | 0.475 | 0.61 | 0.646 | 0.196
